Measured values taken from PubChem BioAssay AID2060909 (Molecular Pharmacology Branch, DTP, NCI, 2025).
pIC50: −log10 of the molar value. Values joined by “and” are separate entries in the source; they are usually repeats but may differ in a detail not shown here. Equal values may be shown once. Values belong to the compound of their own block, whether it stands above or below them.

Test system: 362531-283-R-J2-PDC complex spheroid viability
Assay: Anticancer human tumor 362531-283-R-J2-PDC patient-derived colon adenocarcinoma cell line growth inhibition [RAS]
Details: for viability, T/C: stronger effect = lower value; for pIC50: curve of first compound
Method in brief: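 Multi-cell-type spheroids: tumor cells plus HUVEC endothelial cells and mesenchymal stem cells. RAS-pathway inhibitors were combined with targeted agents, each dosed in half-log steps down from clinical Cmax, or from 10 microM when Cmax was unknown.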
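Further: spheroids exposed to the agents for 7 days before readout.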
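Wherever viability, T/C is given: luminescence viability as percent of DMSO vehicle control wells.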

- IC50 (curve of compound): 4.62 µM [middle of 4 runs]
Compound: CCC(CC)c1cc(NC2CCC(N)C2)n2nccc2n1 (centres undefined)
- viability, T/C (compound 0.0316 µM): 106% [middle of 4 runs]
- viability, T/C (compound 0.1 µM): 94% and 100% and 104% (2×)
- viability, T/C (compound 0.316 µM): 101% [middle of 4 runs]
- viability, T/C (compound 1 µM): 94.1% [middle of 4 runs]
- viability, T/C (compound 3.16 µM): 74.8% [middle of 4 runs]
- viability, T/C (compound 10 µM): 3.99% [middle of 4 runs]

- pIC50 (second compound 0.0316 µM): 6.77
- pIC50 (second compound 0.1 µM): 6.79
- pIC50 (second compound 0.316 µM): 6.93
- pIC50 (second compound 1 µM): 7.13
- pIC50 (second compound 3.16 µM): 7.24
- pIC50 (second compound 10 µM): > 8.50
Compound: Nc1ccn(C2OC(CO)C(O)C2(F)F)c(=O)n1 (centres undefined) + C#Cc1c(F)ccc2cc(O)cc(-c3ncc4c(N5CC6CCC(C5)N6)nc(OCC56CCCN5CC(F)C6)nc4c3F)c12
- viability, T/C (second compound 0.0316 µM, first compound 0.00316 µM): 101%
- viability, T/C (second compound 0.0316 µM, first compound 0.01 µM): 104%
- viability, T/C (second compound 0.0316 µM, first compound 0.0316 µM): 81%
- viability, T/C (second compound 0.0316 µM, first compound 0.1 µM): 72.6%
- viability, T/C (second compound 0.0316 µM, first compound 0.316 µM): 20.5%
- viability, T/C (second compound 0.0316 µM, first compound 1 µM): 26.8%
- viability, T/C (second compound 0.1 µM, first compound 0.00316 µM): 104%
- viability, T/C (second compound 0.1 µM, first compound 0.01 µM): 97.1%
- viability, T/C (second compound 0.1 µM, first compound 0.0316 µM): 85.5%
- viability, T/C (second compound 0.1 µM, first compound 0.1 µM): 72.6%
- viability, T/C (second compound 0.1 µM, first compound 0.316 µM): 15.2%
- viability, T/C (second compound 0.1 µM, first compound 1 µM): 24.4%
- viability, T/C (second compound 0.316 µM, first compound 0.00316 µM): 92.5%
- viability, T/C (second compound 0.316 µM, first compound 0.01 µM): 92.4%
- viability, T/C (second compound 0.316 µM, first compound 0.0316 µM): 84.1%
- viability, T/C (second compound 0.316 µM, first compound 0.1 µM): 56.4%
- viability, T/C (second compound 0.316 µM, first compound 0.316 µM): 16.5%
- viability, T/C (second compound 0.316 µM, first compound 1 µM): 17.5%
- viability, T/C (second compound 1 µM, first compound 0.00316 µM): 76.9%
- viability, T/C (second compound 1 µM, first compound 0.01 µM): 79.5%
- viability, T/C (second compound 1 µM, first compound 0.0316 µM): 66.8%
- viability, T/C (second compound 1 µM, first compound 0.1 µM): 45.5%
- viability, T/C (second compound 1 µM, first compound 0.316 µM): 13.8%
- viability, T/C (second compound 1 µM, first compound 1 µM): 17.5%
- viability, T/C (second compound 3.16 µM, first compound 0.00316 µM): 61.1%
- viability, T/C (second compound 3.16 µM, first compound 0.01 µM): 62.6%
- viability, T/C (second compound 3.16 µM, first compound 0.0316 µM): 61.3%
- viability, T/C (second compound 3.16 µM, first compound 0.1 µM): 39.9%
- viability, T/C (second compound 3.16 µM, first compound 0.316 µM): 14.8%
- viability, T/C (second compound 3.16 µM, first compound 1 µM): 12.8%
- viability, T/C (second compound 10 µM, first compound 0.00316 µM): 54.7%
- viability, T/C (second compound 10 µM, first compound 0.01 µM): 45.1%
- viability, T/C (second compound 10 µM, first compound 0.0316 µM): 41.7%
- viability, T/C (second compound 10 µM, first compound 0.1 µM): 15.1%
- viability, T/C (second compound 10 µM, first compound 0.316 µM): 18.1%
- viability, T/C (second compound 10 µM, first compound 1 µM): 16.2%
